{
  "source": "patent US20250320213A1",
  "about": "“Nitrogen-Containing Heterocyclic Compounds” (Pfizer Inc., priority 2024, published 2025)",
  "data": [
    {"biological_target": "T1, STAT6 (Homo sapiens, UniProt P42226)", "T1 construct": "stably transfected HaCaT keratinocyte cell line, which expresses NanoLuc luciferase reporter gene under the transcriptional control of the STAT6 responsive promoter; endogenous in cells; host or cells: HaCaT keratinocyte reporter cell line (stably transfected with a NanoLuc reporter)", "T1 sequence (P42226 1-847)": "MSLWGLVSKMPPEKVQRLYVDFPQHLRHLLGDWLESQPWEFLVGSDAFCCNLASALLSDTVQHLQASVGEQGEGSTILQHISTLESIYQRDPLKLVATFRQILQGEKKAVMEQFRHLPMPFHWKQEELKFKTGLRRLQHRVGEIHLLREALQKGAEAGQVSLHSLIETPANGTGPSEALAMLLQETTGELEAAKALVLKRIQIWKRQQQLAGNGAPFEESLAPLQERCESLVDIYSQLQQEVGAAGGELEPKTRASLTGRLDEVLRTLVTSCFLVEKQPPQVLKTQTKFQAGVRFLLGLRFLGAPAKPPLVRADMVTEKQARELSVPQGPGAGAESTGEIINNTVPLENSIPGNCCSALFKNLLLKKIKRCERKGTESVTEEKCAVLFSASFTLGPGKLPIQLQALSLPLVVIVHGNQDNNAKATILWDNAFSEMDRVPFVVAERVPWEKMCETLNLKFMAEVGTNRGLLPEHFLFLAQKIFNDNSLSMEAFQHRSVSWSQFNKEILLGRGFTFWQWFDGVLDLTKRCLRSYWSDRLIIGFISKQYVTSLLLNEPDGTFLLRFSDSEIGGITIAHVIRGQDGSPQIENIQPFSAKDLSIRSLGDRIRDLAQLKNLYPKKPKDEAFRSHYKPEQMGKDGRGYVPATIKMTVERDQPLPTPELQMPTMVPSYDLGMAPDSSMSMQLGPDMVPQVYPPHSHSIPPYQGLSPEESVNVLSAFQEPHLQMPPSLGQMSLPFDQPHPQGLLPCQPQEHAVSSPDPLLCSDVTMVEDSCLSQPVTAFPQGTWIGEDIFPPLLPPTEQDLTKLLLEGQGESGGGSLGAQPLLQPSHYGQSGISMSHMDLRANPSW", "assay": "STAT6 Reporter Luciferase Assay (IL-13 stimulated HaCaT keratinocyte NanoLuc reporter cells)", "format": "cell-based", "details": "IL-13 stimulated HaCaT STAT6 NanoLuc reporter cells; read-out: Reporter EC50", "in_short": "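Cells were plated overnight, washed, exposed to compound for two hours, stimulated with IL-13 (0.12 nM final) for four hours at 37 °C, and then lysed with Nano-Glo substrate for 15 min before luminescence reading.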", "units": {"EC50": "nM"}, "values": [
      {"smiles": "Cc1c2c(nn1C)CCN(C(=O)c1ccc(N3CCc4c(c(C(=O)NCc5ccc(NC(=O)N(C)C)cc5)nn4C(C)C)C3)nc1)C2", "note": "[Example 381, 5-(5-(2,3-dimethyl-4,5,6,7-tetrahydro-2H-pyrazolo[4,3-c]pyridine-5-carbonyl)pyridin-2-yl)-N-(4-(3,3-dimethylureido)benzyl)-1-isopropyl-4,5,6,7-tetrahydro-1H-pyrazolo[4,3-c]pyridine-3-carboxamide]", "EC50": 33},
      {"smiles": "COCCC1(N)CCN(C(=O)Nc2ccc(CNC(=O)c3nn(C(C)C)c4c3CN(c3ccc(C(=O)N(C)C)cc3)C[C@@H]4C)cc2)C1", "note": "(single isomer, unassigned) [Example 670, (S)-N-(4-((R*)-3-amino-3-(2-methoxyethyl)pyrrolidine-1-carboxamido)benzyl)-5-(4-(dimethylcarbamoyl)phenyl)-1-isopropyl-7-methyl-4,5,6,7-tetrahydro-1H-pyrazolo[4,3-c]pyridine-3-carboxamide]", "EC50": 1},
      {"smiles": "COC1CCN(C(=O)c2ccc(N3CCc4c(c(C(=O)NCc5ccc(NC(=O)N(C)C)cc5)nn4C(C)C)C3)nc2)CC1", "note": "[Example 199, N-(4-(3,3-dimethylureido)benzyl)-1-isopropyl-5-(5-(4-methoxypiperidine-1-carbonyl)pyridin-2-yl)-4,5,6,7-tetrahydro-1H-pyrazolo[4,3-c]pyridine-3-carboxamide]", "EC50": 125},
      {"smiles": "CC(C)n1nc(C(=O)NCc2ccc(NC(=O)N3CCC(C(=O)O)CC3)c(F)c2)c2c1[C@@H](C)CN(c1ccc(C(=O)N(C)C)cc1)C2", "note": "[Example 734, (S)-1-((4-((5-(4-(dimethylcarbamoyl)phenyl)-1-isopropyl-7-methyl-4,5,6,7-tetrahydro-1H-pyrazolo[4,3-c]pyridine-3-carboxamido)methyl)-2-fluorophenyl)carbamoyl)piperidine-4-carboxylic acid]", "EC50": 38},
      {"smiles": "COC[C@H]1CN(C(=O)Nc2ccc(CNC(=O)c3nn(C(C)C)c4c3CN(c3ccc(C(=O)N(C)C)cc3)C[C@@H]4C)cc2F)CCN1", "note": "[Example 689, (S)-5-(4-(dimethylcarbamoyl)phenyl)-N-(3-fluoro-4-((R)-3-(methoxymethyl)piperazine-1-carboxamido)benzyl)-1-isopropyl-7-methyl-4,5,6,7-tetrahydro-1H-pyrazolo[4,3-c]pyridine-3-carboxamide]", "EC50": 1},
      {"smiles": "COC[C@@H]1CCCN1C(=O)c1ccc(N2CCc3c(c(C(=O)NCc4ccc(NC(=O)N(C)C)cc4)nn3C(C)C)C2)nc1", "note": "[Example 209, (S)-N-(4-(3,3-dimethylureido)benzyl)-1-isopropyl-5-(5-(2-(methoxymethyl)pyrrolidine-1-carbonyl)pyridin-2-yl)-4,5,6,7-tetrahydro-1H-pyrazolo[4,3-c]pyridine-3-carboxamide]", "EC50": 692},
      {"smiles": "CC(C)n1nc(C(=O)NCc2ccc(NC(=O)N3CCC4(CC3)CCN4C)c(F)c2)c2c1[C@@H](C)CN(c1ccc(C(=O)N(C)C)cc1)C2", "note": "[Example 645, (S)-5-(4-(dimethylcarbamoyl)phenyl)-N-(3-fluoro-4-(1-methyl-1,7-diazaspiro[3.5]nonane-7-carboxamido)benzyl)-1-isopropyl-7-methyl-4,5,6,7-tetrahydro-1H-pyrazolo[4,3-c]pyridine-3-carboxamide]", "EC50": 1},
      {"smiles": "CC(C)n1nc(C(=O)NCc2ccc(NC(=O)N(C)C)cc2)c2c1[C@@H](C)CN(c1ccc(C(=O)N(C)CC3CCN(Cc4ccccc4)CC3)cc1)C2", "note": "[Example 662, (S)-5-(4-(((1-benzylpiperidin-4-yl)methyl)(methyl)carbamoyl)phenyl)-N-(4-(3,3-dimethylureido)benzyl)-1-isopropyl-7-methyl-4,5,6,7-tetrahydro-1H-pyrazolo[4,3-c]pyridine-3-carboxamide]", "EC50": 3},
      {"smiles": "Cc1cc(C)c2c(n1)CN(C(=O)c1ccc(N3CCc4c(c(C(=O)NCc5ccc(NC(=O)N(C)C)cc5)nn4C(C)C)C3)nc1)C2", "note": "[Example 368, 5-(5-(2,4-dimethyl-6,7-dihydro-5H-pyrrolo[3,4-b]pyridine-6-carbonyl)pyridin-2-yl)-N-(4-(3,3-dimethylureido)benzyl)-1-isopropyl-4,5,6,7-tetrahydro-1H-pyrazolo[4,3-c]pyridine-3-carboxamide]", "EC50": 5}
    ]}
  ]
}
